Values of other authors in patent publication US7851190B2, “Biosynthetic gene cluster for leptomycins” (priority 2003, dated 2010).

Key:
[1] = test system: adriamycin, amsacrine and mitoxantrone resistant P388 leukemia, other leukemias, B16 melanoma, Ridgway osteogenic and M5076 sarcomas and mammary adenocarinoma
HIV-1 Rev = conditions: in vitro; FIG. 2

SMILES	acute toxicity ([1]; exacerbated upon more frequent or oral administration)	antitumor activity ([1]; mouse murine and xenograph cancer models, low doses)	difference in activity between a Rev-dependent assay and cytotoxicity to the same cells (HIV-1 Rev)
CCC(=C/[C@H](C)C/C=C/C(C)=C/[C@@H](C)C(=O)[C@@H](C)[C@H](O)[C@@H](C)C/C(C)=C/C(=O)O)/C=C/[C@@H]1OC(=O)C=C[C@@H]1C [LMB, Leptomycin B]	gastrointestinal	Activity was observed at low doses	approx. 250 fold
CCOC(=O)/C=C\n1ncnc1-c1cc(Cl)ccc1N [PKF050-638]			75 fold
